Source: patent EP4574175A1, “PRODRUG FOR ANTI-AGING RELATED DISEASES AND USE METHOD THEREFOR” (BEIJING SUNCELL BIO-MEDICAL CO., LTD., priority 2022, dated 2024)

What was measured:
[1] = molecular target: T1, E. coli-derived β-galactosidase (Escherichia coli, UniProt P00722); assay: In vitro enzymatic hydrolysis reaction monitored by HPLC; format: biochemical; settings: 10 µM, PBS pH 7.3, 37°C, 6 hours
T1 construct: purchased Sigma
Method: The in vitro enzymatic hydrolysis reaction was carried out using E. coli-derived β-galactosidase (Sigma) in PBS solution (0.01 M, pH 7.3) at a reaction concentration of 10 µM for both A13 and A13bG, and for 6 hours at 37°C after the addition of β-galactosidase (10 U/µM). The hydrolysis reaction was monitored by the high performance liquid chromatography (HPLC). The compound A13 and the prodrug A13bG without enzyme reaction were analyzed by HPLC at the same conditions as the references. The chromatographic column model: Waters Acquity BEH C4, the conditions: 0.04 ml/min, (water (0.1% acetic acid)): the acetonitrile gradient elution: 98:2 1 min, 5:95 13 min, 5:95 18 min, 2:98 20 min.

[2] = tested on: senescent HEF, HELF, BJ, A549, HUVEC and MRC5 cells; assay: Cell viability test (CCK-8) on induced senescent cell models, A13 vs A13bGa1; settings: Figures 3B-3G
Method: Briefly, the human embryonic skin tissues and the fetal lung tissues obtained from the aborted tissues with the patient's informed consent were minced with the forcep and incubated in 1 mg/ml collagenase IV at 37°C for 1-2 hours. After the enzyme treatment, the cells were collected by centrifugation and resuspended in HEF medium (Dulbecco's modified Eagle medium (DMEM, Gibco) containing 10% fetal bovine serum (FBS, Ausbian), 1% GlutaMAX (Gibco), 1% non-essential amino acids (NEAA, Gibco) and 1% penicillin/streptomycin (Gibco). Gibco). Cells were plated on the 10 cm tissue culture dishes and grown in 10% FBS DMEM. […] They were passaged and cryopreserved according to Lonza's method. A549 cells, BJ cells and MRC5 cells were purchased from ATCC and cultured in DMEM medium containing 10% fetal bovine serum (FBS, Ausbian), and 1% penicillin/streptomycin (Gibco).
Cell Counting Kit-8 (CCK-8) assay was used to assess the cell viability. The senescent and non-senescent cells or chondrocytes were seeded into the 96-well plates and cultured overnight. The cells were then treated with control (0.05% DMSO) or different concentrations of the drug to be tested. […] Absorbance was measured at the wavelength of 450 nm.

[3] = Plasma metabolic stability; format: in vitro ADME, human; settings: Huamn plasma, 10 µM, 120 minutes
Method: (§1) Termination of the reaction was accomplished by the addition of 3x volume of acetonitrile and centrifugation at 16000 g for 20 minutes. The supernatant was taken for a LC-MS/MS analysis. The chromatographic column: Waters XSelect HSS T3; the flow rate: 500 µL/min; the eluent: A, water (0.1% formic acid); B, acetonitrile (0.1% formic acid); the gradient elution: 0-1.5 min, 5% B, 1.5-9 min, 5%-80% B, 9-12 min, 80%-100% B, 12-14 min, 100% B, 14-14.3 min, 100%-5% B, 14.3-15 min, 5% B.

[4] = Hepatic microsomal metabolic stability; settings: mouse
Method: […] Samples were taken and analyzed at time points 0, 15, 30, 45 and 60 minutes during the incubation. The reaction was terminated by adding an amount of acetonitrile solution containing the internal standard. […] The residual percentage, half-life, intrinsic clearance, amplified clearance, hepatic clearance and hepatic extraction ratio were determined. The entire experiment was performed in triplicate. All data calculations were performed by Microsoft Excel software. Peak areas were detected by extracting the ionic spectrum. The in vitro half-life (t1/2) of the parent compound was detected by fitting the natural logarithm of the percentage elimination of the parent compound linearly to time.
The in vitro intrinsic clearance (in µL/min/mg protein) was calculated using the following equation: in vitro CLint = kV/N
The amplified clearance (in mL/min/kg) was calculated using the following equation: Amplified CLint = kV/N × the amplification factor [formula]
The hepatic clearance (in mL/min/kg) was calculated using the following equation: The predicted hepatic CLH = (Q×Fu/RB×theamplifiedCLint)/([…]) [formula] • V = the incubation volume per well (0.2 mL); • N = the total amount of protein (mg) • Q = the hepatic blood flow (mL/min/kg) • Fu = the plasma free rate (assumed to be 1) • RB = the whole blood partition coefficient (assumed to be 1)
The hepatic […] was calculated using the following equation: The hepatic extraction ratio(ER) = (thepredictedhepaticCLH)/Q [formula]

[5] = Hepatic microsomal metabolic stability
[6] = Plasma metabolic stability; format: in vitro ADME; settings: 10 µM, 120 minutes; for The peak area after normalisation at minute 120, peak 1 oxidative dehydrogenation: metabolite peak
Method: as §1

T1 sequence (P00722 2-1024): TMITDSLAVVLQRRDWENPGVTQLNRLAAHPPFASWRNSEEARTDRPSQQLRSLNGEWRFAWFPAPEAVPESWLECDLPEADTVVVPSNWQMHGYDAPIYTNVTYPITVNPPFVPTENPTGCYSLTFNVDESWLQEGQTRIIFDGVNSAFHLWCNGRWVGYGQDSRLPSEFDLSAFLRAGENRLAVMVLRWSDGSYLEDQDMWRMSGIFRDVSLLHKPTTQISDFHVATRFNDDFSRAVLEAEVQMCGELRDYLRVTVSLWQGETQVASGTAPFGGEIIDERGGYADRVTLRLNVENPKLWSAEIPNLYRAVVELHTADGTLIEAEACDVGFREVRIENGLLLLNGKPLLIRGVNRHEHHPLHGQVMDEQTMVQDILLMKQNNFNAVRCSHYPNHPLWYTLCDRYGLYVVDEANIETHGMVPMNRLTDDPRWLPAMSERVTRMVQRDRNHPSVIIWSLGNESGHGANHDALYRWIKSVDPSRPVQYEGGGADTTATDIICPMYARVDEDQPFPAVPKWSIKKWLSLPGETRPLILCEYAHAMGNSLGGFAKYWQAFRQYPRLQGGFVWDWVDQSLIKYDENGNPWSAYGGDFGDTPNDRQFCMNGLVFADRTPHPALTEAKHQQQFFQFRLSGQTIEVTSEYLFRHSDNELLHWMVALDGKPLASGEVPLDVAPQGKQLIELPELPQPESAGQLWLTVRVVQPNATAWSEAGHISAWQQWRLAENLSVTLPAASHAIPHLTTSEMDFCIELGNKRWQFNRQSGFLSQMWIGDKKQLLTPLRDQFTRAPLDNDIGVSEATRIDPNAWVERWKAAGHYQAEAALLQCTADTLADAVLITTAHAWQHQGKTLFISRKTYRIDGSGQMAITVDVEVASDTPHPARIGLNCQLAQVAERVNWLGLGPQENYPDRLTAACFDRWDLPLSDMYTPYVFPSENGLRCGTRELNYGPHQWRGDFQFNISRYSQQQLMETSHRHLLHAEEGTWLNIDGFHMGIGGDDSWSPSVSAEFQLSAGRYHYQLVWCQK

Q: Which “hydrolysis by β-gal enzyme” value [1] does the source give for Cc1c(-c2ccc(N3CCc4cccc(C(=O)Nc5nc6ccccc6s5)c4C3)nc2C(=O)OCc2ccc(O[C@@H]3O[C@H](CO)[C@H](O)[C@H](O)[C@H]3O)c([N+](=O)[O-])c2)cnn1CC12CC3CC(CC(C3)C1)C2 [A13bGa1] here?
A: hydrolysed under the action of β-gal enzyme to release the parent compound A13

Q: What about the “overall killing activity on the senescent cells compared with parent compound” value [2] of the same compound?
A: somewhat reduced compared with that of the parent compound A13

Q: And the “killing of the senescent cells” value ([2]; skin-derived fibroblasts, lung-derived cells, vascular endothelial-derived cells)?
A: highly efficient and selective in killing the senescent cells

Q: And the “The peak area after normalisation at minute 120, Initial drug A13bGa1” value [3]?
A: 99.93%

Q: What about the “The peak area after normalisation at minute 120, peak 1 oxidative dehydrogenation” value ([3]; metabolite peak) of the same compound?
A: 0.07%

Q: And the “The hepatic extraction ratio (E)” value [4]?
A: 0.40

Q: And the CLint scaled at 1 µM ([4]; microsomes)?
A: 36.2 mL/min/kg

Q: What about the microsomal CLint at 1 µM ([4]; microsomes) of the same compound?
A: 13.8 µL/min/mg

Q: What about the “The hepatic extraction ratio (E)” value ([5]; Canine) of the same compound?
A: 0.70

Q: And the CLint scaled at 1 µM ([5]; dog, microsomes)?
A: 21.7 mL/min/kg

Q: What about the microsomal CLint at 1 µM ([5]; dog, microsomes) of the same compound?
A: 29.3 µL/min/mg

Q: And the “The peak area after normalisation at minute 120, Initial drug A13bGa1” value ([6]; Canine plasma)?
A: 99.52%

Q: What about the “The peak area after normalisation at minute 120, Initial drug A13bGa1” value ([6]; Monkey plasma) of the same compound?
A: 99.96%

Q: And the “The peak area after normalisation at minute 120, Initial drug A13bGa1” value ([6]; Mouse plasma)?
A: 99.96%

Q: And the “The peak area after normalisation at minute 120, Initial drug A13bGa1” value ([6]; Rat plasma)?
A: 99.87%

Q: What about the “The peak area after normalisation at minute 120, peak 1 oxidative dehydrogenation” value ([6]; Canine plasma) of the same compound?
A: 0.48%

Q: What about the “The peak area after normalisation at minute 120, peak 1 oxidative dehydrogenation” value ([6]; Monkey plasma) of the same compound?
A: 0.04%

Q: What about the “The peak area after normalisation at minute 120, peak 1 oxidative dehydrogenation” value ([6]; Mouse plasma) of the same compound?
A: 0.04%

Q: And the “The peak area after normalisation at minute 120, peak 1 oxidative dehydrogenation” value ([6]; Rat plasma)?
A: 0.13%
